Source: article PMC4632126, “High specific selectivity and Membrane-Active Mechanism of the synthetic centrosymmetric α-helical peptides with Gly-Gly pairs” (Scientific Reports, 2015)
Values after ≈ are worked out from the molar mass of the structure shown. Read-outs that look alike come from different tables or passages of the source. Where no end group is shown, it is not given here.

How the values were obtained:
[1] = test system: 3 gram-negative strains tested; assay: Geometric mean of MBCs and therapeutic index, gram-negative strains; format: cell-based; conditions: >128 counted as 256 μM; for TI (therapeutic index), gram-negative: MHC/GM for 3 gram-negative strains
Procedure: (§1) In short, 50 μL peptide solutions were pipetted into microtiter plates at various concentrations ranging from 1 to 128 μM. Freshly grown bacteria were added to the each well in a density of 0.5–1 × 10^6 CFUmL^−1. Microtiter plated was incubated at 37 °C for 5 h. Fifty microliters of each incubation mixture was further serially diluted (up to 10^−3 of the initial bacterial concentration), transferred on agar plates and incubated overnight. On the following day, the number of colonies was evaluated and the initial CFU/well retrospectively calculated. The minimum bactericidal concentrations (μM) were determined as the lowest concentration of the peptides that prevented more than 99.9% bacteria growth.
(§2) The therapeutic index (TI) is calculated by the ration of the minimum hemolytic concentration (MHC) to the geometric mean of the MBC (GM) to evaluate cell selectivity of peptides.

[2] = test system: S. aureus ATCC29213; format: cell-based, Staphylococcus aureus
Procedure: as §1, with “Minimal bactericidal concentrations (MBCs) were measured using the method which has been adopted from National Committee for Clinical Laboratory Standards (NCCLS), with modifications. In” for “In”

[3] = test system: E. coli ATCC 25922; assay: Flow cytometry, membrane integrity by PI staining; format: cell-based, Escherichia coli; conditions: peptide at 1 × MBC, PI 10 μg mL^−1, 30 min at 4 °C
Procedure: The membrane damage was determined by flow cytometry. Briefly, E. coli ATCC 25922 was grown to mid-log phase in MHB at 37 °C, harvested by centrifugation at 1,000 × g for 10 min, washed thrice with PBS and diluted to 10^5 CFU mL^−1 in the same buffer. The peptides at the concentrations of 1 × MBCs were incubated with the bacterial suspension at a fixed PI concentration of 10 μg mL^−1 for 30 min at 4 °C, and followed by the removal of the unbound dye through washing with an excess of PBS. A Fluorescence Activated Cell Sorter (FACS) flow cytometer (Becton–Dickinson, USA) was used to obtain the data with a laser excitation wavelength of 488 nm.

[4] = test system: 3 gram-positive strains tested; conditions: >128 counted as 256 μM; for TI (therapeutic index), gram-positive: MHC/GM for 3 gram-positive strains
Procedure: as §1, §2

[5] = test system: E. coli ATCC 25922; format: cell-based, Escherichia coli
Procedure: as §1, with “Minimal bactericidal concentrations (MBCs) were measured using the method which has been adopted from National Committee for Clinical Laboratory Standards (NCCLS), with modifications. In” for “In”

[6] = test system: E. coli UB1005; format: cell-based, Escherichia coli
Procedure: as §1, with “Minimal bactericidal concentrations (MBCs) were measured using the method which has been adopted from National Committee for Clinical Laboratory Standards (NCCLS), with modifications. In” for “In”

[7] = test system: S. typhimurium ATCC14028; format: cell-based, Salmonella typhimurium
Procedure: as §1, with “Minimal bactericidal concentrations (MBCs) were measured using the method which has been adopted from National Committee for Clinical Laboratory Standards (NCCLS), with modifications. In” for “In”

[8] = test system: all of the 6 strains tested; assay: Geometric mean of MBCs and therapeutic index, all strains; format: cell-based; conditions: >128 counted as 256 μM; for TI (therapeutic index), all strains: MHC/GM for all 6 strains
Procedure: as §1, §2

[9] = test system: S. epidermidis ATCC12228; format: cell-based, Staphylococcus epidermidis; conditions: ATCC12228, 5 h
Procedure: In short, 50 μL peptide solutions were pipetted into microtiter plates at various concentrations ranging from 1 to 128 μM. Freshly grown bacteria were added to the each well in a density of 0.5–1 × 10^6 CFUmL^−1. Microtiter plated was incubated at 37 °C for 5 h. Fifty microliters of each incubation mixture was further serially diluted (up to 10^−3 of the initial bacterial concentration), transferred on agar plates and incubated overnight. On the following day, the number of colonies was evaluated and the initial CFU/well retrospectively calculated. The minimum bactericidal concentrations (μM) were determined as the lowest concentration of the peptides that prevented more than 99.9% bacteria growth. Each test was reproduced at least 3 times using 6 replicates.

[10] = test system: human red blood cells (hRBCs); conditions: red cells of human, 1 h
Procedure: (§3) The hemolytic activity of each peptide was evaluated using a modified method, as described previously[21][22]. […] Then, the collected hRBCs were washed three times with PBS (pH 7.2), centrifuged at 1000 × g for 5 min, and resuspended in PBS (final concentration, approximately 1%). Next, 50 μL of the hRBC suspension was placed into a 96-well cell culture plate with 50 μL of test peptide solution in PBS at different concentrations, and the mixture was incubated at 37 °C for 1 h. After incubation, the plate was centrifuged at 1000 × g for 5 min, the supernatant was transferred to a new 96-well cell culture plate, and the release of hemoglobin was measured by monitoring optical density (OD) at 576 nm. Untreated hRBCs suspension was used as a negative control, and the hRBCs treated with 0.1% Triton X-100 were employed as positive controls. Each test was reproduced at least 3 times using 6 replicates. Percent hemolysis was calculated using the following equation:

[11] = test system: E. coli ATCC 25922; format: cell-based, Escherichia coli; remark: listed apart in the source
Procedure: as §1, with “Minimal bactericidal concentrations (MBCs)” for “In short, 50 μL peptide solutions”, “measured using the method which has been adopted” for “pipetted into microtiter plates at various concentrations ranging”, “National Committee for Clinical Laboratory Standards (NCCLS), with modifications. […]” for “1 to 128 μM.”, “growth. […] The salt sensitivity of the peptides was measured using a modified method, as described previously. […] The subsequent steps were consistent with the MBCs determination method.” for “growth.”

[12] = test system: human red blood cells (hRBCs); assay: Hemolytic activity; conditions: concentration causing 5% hemolysis of human red blood cells; about 1% hRBC in PBS, 37 °C, 1 h, OD 576 nm
Procedure: as §3

[13] = test system: Methicillin-resistant S. aureus ATCC 43300; conditions: S. aureus 43300 (methicillin-resistant); lowest concentration preventing more than 99.9% growth; 37 °C, 5 h; representative of three trials
Procedure: as §1

[14] = test system: S. aureus ATCC 29213; format: cell-based, Staphylococcus aureus; conditions: ATCC 29213, 5 h
Procedure: as §1, with “Minimal bactericidal concentrations (MBCs)” for “In short, 50 μL peptide solutions”, “measured using the method which has been adopted” for “pipetted into microtiter plates at various concentrations ranging”, “National Committee for Clinical Laboratory Standards (NCCLS), with modifications. […]” for “1 to 128 μM.”, “growth. […] The salt sensitivity of the peptides was measured using a modified method, as described previously. […] The subsequent steps were consistent with the MBCs determination method.” for “growth.”

[15] = test system: E. coli ATCC 25922; format: cell-based, Escherichia coli; conditions: ATCC 25922, 24 h
Procedure: The checkerboard titration method is commonly used to evaluate the synergy of different antibacterial combinations. First, 2-fold serial dilutions of the antibiotics and antimicrobial peptides were prepared. Subsequently, 50 μL each of different concentrations of antibiotics and of antimicrobial peptides was mixed and added into 100 μL of bacterial solution (containing approximately 0.5–1 × 10^6 CFU mL^−1) in each well of a 96-well plate. The plates were then incubated at 37 °C for 24 h. The subsequent steps were consistent with the MBCs determination method. The fractional inhibitory concentration (FIC) index (FICI) was calculated as follows: An FICI < 0.5 is considered to indicate synergy; 0.5 < FICI < 1.0 is considered additive; 1.0 < FICI < 4.0 is considered indifferent; and an FICI > 4.0 is considered antagonism.

[16] = target: the molecule itself; assay: FRET or BRET; FAM-labeled GG3 (donor) with TAMRA-labeled GG3 (acceptor) and unlabeled GG3, in POPG or POPC/POPG (3:1) vesicles; total peptide and FAM-peptide concentrations kept constant, mole fraction of TAMRA-peptide varied; 10 mM Tris, 150 mM NaCl, 0.1 mM EDTA, pH 7.4; excitation 492 nm; membrane-bound state

Molecule: CC[C@H](C)[C@H](NC(=O)CN)C(=O)NCC(=O)N[C@@H](C)C(=O)N[C@H](C(=O)N[C@@H](CC(C)C)C(=O)N[C@@H](CCCCN)C(=O)N[C@H](C(=O)N[C@@H](CC(C)C)C(=O)N[C@H](C(=O)N[C@H](C(=O)NCC(=O)N[C@@H](CC(C)C)C(=O)N1CCC[C@H]1C(=O)N[C@@H](C)C(=O)N[C@@H](CC(C)C)C(=O)N[C@H](C(=O)N[C@@H](CO)C(=O)N[C@@H](Cc1c[nH]c2ccccc12)C(=O)N[C@H](C(=O)N[C@@H](CCCCN)C(=O)N[C@@H](CCCNC(=N)N)C(=O)N[C@@H](CCCCN)C(=O)N[C@@H](CCCNC(=N)N)C(=O)N[C@@H](CCC(N)=O)C(=O)N[C@@H](CCC(N)=O)C(N)=O)[C@@H](C)CC)[C@@H](C)CC)[C@@H](C)O)[C@@H](C)O)C(C)C)C(C)C [Melittin, reference compound]
- GM (geometric mean of MBCs), Gram (−) ([1]; 3 gram-negative strains): 2 µM
- Minimum bactericidal concentration ([2]; S. aureus 29213, lowest concentration preventing more than 99.9% growth, 37 °C, 5 h, representative of three trials): 8 µM (≈ 22.8 µg/mL)
- percentage of PI-positive cells [3]: 99.0%
- GM (geometric mean of MBCs), Gram (+) ([4]; 3 gram-positive strains): 2 µM
- Minimum bactericidal concentration ([5]; E. coli 25922, lowest concentration preventing more than 99.9% growth, 37 °C, 5 h, representative of three trials): 2 µM (≈ 5.69 µg/mL)
- Minimum bactericidal concentration ([6]; E. coli 1005, lowest concentration preventing more than 99.9% growth, 37 °C, 5 h, representative of three trials): 2 µM (≈ 5.69 µg/mL)
- Minimum bactericidal concentration ([7]; S. typhimurium 14028, lowest concentration preventing more than 99.9% growth, 37 °C, 5 h, representative of three trials): 2 µM (≈ 5.69 µg/mL)
- GM (geometric mean of MBCs), Gram (+, −) ([8]; all 6 strains): 2 µM

Molecule: AKLWLKA-NH2 [AA1]
- Minimum bactericidal concentration ([2]; ATCC 29213, 5 h): >128 µM
- Minimum bactericidal concentration [9]: >128 µM
- Minimum bactericidal concentration ([5]; ATCC 25922, 5 h): >128 µM
- Minimum bactericidal concentration ([6]; UB1005, 5 h): >128 µM
- Minimum bactericidal concentration ([7]; ATCC14028, 5 h): >128 µM
- MHC (minimum hemolytic concentration) [10]: >128 µM

Molecule: GKLWGLKGKLWGLKGKLWGLK-NH2 [GG3s1]
- TI (therapeutic index), gram-negative [1]: 40.31
- Minimum bactericidal concentration ([2]; ATCC 29213, 5 h): 128 µM
- TI (therapeutic index), gram-positive [4]: 2
- Minimum bactericidal concentration [9]: 128 µM
- Minimum bactericidal concentration ([5]; ATCC 25922, 5 h): 4 µM
- Minimum bactericidal concentration ([6]; UB1005, 5 h): 4 µM
- Minimum bactericidal concentration ([7]; ATCC14028, 5 h): 16 µM
- TI (therapeutic index), all strains [8]: 8.98
- MHC (minimum hemolytic concentration) [10]: >128 µM

Molecule: GKLWLKG-NH2 [GG1]
- Minimum bactericidal concentration ([2]; ATCC 29213, 5 h): >128 µM
- MBC with FeCl3 ([11]; E. coli ATCC 25922, 4 μM FeCl3): >128 µM
- MBC with NH4Cl ([11]; E. coli ATCC 25922, 6 μM NH4Cl): >128 µM
- MBC with ZnCl2 ([11]; E. coli ATCC 25922, 8 μM ZnCl2): >128 µM
- MBC with MgCl2 ([11]; E. coli ATCC 25922, 1 mM MgCl2): >128 µM
- MBC with CaCl2 ([11]; E. coli ATCC 25922, 2 mM CaCl2): >128 µM
- MBC with KCl ([11]; E. coli ATCC 25922, 4.5 mM KCl): >128 µM
- MBC with NaCl ([11]; E. coli ATCC 25922, 150 mM NaCl): >128 µM
- MBC, control ([11]; E. coli ATCC 25922, without physiological salts): >128 µM
- Minimum bactericidal concentration [9]: >128 µM
- Minimum bactericidal concentration ([5]; ATCC 25922, 5 h): >128 µM
- Minimum bactericidal concentration ([6]; UB1005, 5 h): >128 µM
- Minimum bactericidal concentration ([7]; ATCC14028, 5 h): >128 µM
- MHC (minimum hemolytic concentration) [10]: >128 µM

Molecule: GKLWLKGGKLWLKGGKLWLKG-NH2 [GG3]
- TI (therapeutic index), gram-negative [1]: 101.59
- Minimum bactericidal concentration ([2]; ATCC 29213, 5 h): 16 µM
- MHC (minimum hemolytic concentration) [12]: >128 µM
- MBC with CaCl2 ([11]; ATCC 25922, 5 h): 2 µM
- MBC with FeCl3 ([11]; ATCC 25922, 5 h): 1 µM
- MBC with KCl ([11]; ATCC 25922, 5 h): 2 µM
- MBC with MgCl2 ([11]; ATCC 25922, 5 h): 2 µM
- MBC with NH4Cl ([11]; ATCC 25922, 5 h): 2 µM
- MBC with NaCl ([11]; ATCC 25922, 5 h): 2 µM
- MBC with ZnCl2 ([11]; ATCC 25922, 5 h): 2 µM
- MBC, control ([11]; ATCC 25922, 5 h): 2 µM
- Minimum bactericidal concentration [13]: 32 µM
- TI (therapeutic index), gram-positive [4]: 10.08
- Minimum bactericidal concentration [9]: 32 µM
- MBC with CaCl2 [14]: 16 µM
- MBC with FeCl3 [14]: 16 µM
- MBC with KCl [14]: 8 µM
- MBC with MgCl2 [14]: 16 µM
- MBC with NH4Cl [14]: 16 µM
- MBC with NaCl [14]: 16 µM
- MBC with ZnCl2 [14]: 16 µM
- MBC, control [14]: 16 µM
- Minimum bactericidal concentration ([5]; ATCC 25922, 5 h): 2 µM
- Minimum bactericidal concentration ([6]; UB1005, 5 h): 2 µM
- Minimum bactericidal concentration ([7]; ATCC14028, 5 h): 4 µM
- TI (therapeutic index), all strains [8]: 32
- FIC index in combination with Ceftazidime [15]: 0.75
- FIC index in combination with Chloramphenicol [15]: 1
- FIC index in combination with Ciprofloxacin [15]: 1
- FIC index in combination with Streptomycin [15]: 0.5

B1: Gly-rich centrosymmetric peptide GG3 (peptide)
peptide: GKLWLKGGKLWLKGGKLWLKG-NH2
modifications: not fully specified
notes: designed peptide from the template (y+hhh+y)n, three repeats of GKLWLKG; In the FRET experiment, FAM-labeled, TAMRA-labeled and unlabeled GG3 were mixed on lipid vesicles; also called FAM-labeled GG3; TAMRA-labeled GG3; source: synthetic peptide (GL Biochem Corporation, Shanghai)
- binding result [16]: binds
